Data on 28 compounds can be found in US12649735B2 (HAIHE BIOPHARMA CO., LTD., priority 2019, dated 2026).

In general, IC50 refers to the concentration that gives 50% inhibition.

Test [1] addresses T1, bromodomain protein BRD4 BD2 (Homo sapiens, UniProt O60885).
T1 construct: The proteins BRD4 BD1/BD2 used in the experiment were purchased from Active Motif Company (Cat. No. 31380/31446); purchased Active Motif 31446
Description: HTRF in vitro assay, inhibitory activity against BRD4 BD2. It counts as binding. The following applies: BRD4(2) 30 nM in final system. The procedure: (§1) The inhibitory activity of the compound against BRD4 BD1 was determined by using Homogeneous Time-Resolved Fluorescence (HTRF).
(§2) The proteins BRD4 BD1/BD2 used in the experiment were purchased from Active Motif Company (Cat. No. 31380/31446); Streptavidin XL-665 (#610SAXLA) and EPIgeneous Binding Domain Kit A (#62BDAPEG) were purchased from Cisbio Bioassays Company, [Lys(5,8,12,16)Ac]H4(1-21)-biotin (#64989), and [Lys(5,8,12,16)Ac]H4(1-25) were products of AnaSpec company; OTX015 and ABBV-075 were purchased from SelleckChem. 384 Well ProxiPlate (#6008280) was purchased from PerkinElmer. The multifunctional microplate reader used for the experimental was a product of PerkinElmer, model: Envision 2104. The experimental water was Millipore-Q pure water.
(§3) 10 mM of stock solution of compound in DMSO was diluted to 1 mM with DMSO and stored, and then diluted 10 times with Binding Domain dilution buffer (purchased from Cisbio Bioassays) for use (the concentration of DMSO in the final system was […]), 1:5 gradient dilution, a total of 5 concentrations.
(§4) 4. Test Method: 1 Batch, 2 Duplicate Wells
(§5) • 1) 5 μL of test compound was transferred to 45 μL of Binding Domain dilution buffer. • 2) 2 μL of 10× compound (4 μL Binding Domain dilution buffer: positive control; 6 μL enzyme buffer (purchased from Cisbio Bioassays): negative control) was transferred to the reaction plate. • 3) 4 μL of 5×BRD4(1) or BRD4(2) (30 nM in final system) was added to the reaction plate. • 4) 4 μL of 5×[Lys(5,8,12,16)Ac]H4(1-21)-biotin was added to the reaction plate, and the plate was covered with a film, and incubated at 37° C. for 30 min. • 5) A detection mixture of SA-XL665 (2×) and anti-H3K9me0-Eu(K) (2×) was prepared in detection buffer (purchased from Cisbio Bioassays). • 6) 10 μL of detection mixture (2×) was added to each well, and incubated for 3 h at room temperature, and the mp value was read using a multi-plate reader Envision. The parameters were set as follows.
A general note: TR-FRET usually uses a lanthanide donor and a delayed reading to cut background.

The target in test [2] is T2, bromodomain protein BRD4 BD1 (Homo sapiens, UniProt O60885).
T2 construct: The proteins BRD4 BD1/BD2 used in the experiment were purchased from Active Motif Company (Cat. No. 31380/31446); purchased Active Motif 31380
Description: HTRF in vitro assay, inhibitory activity against BRD4 BD1. Format: binding. The following applies: BRD4(1) 30 nM in final system. The protocol:
In this example, the half inhibitory activity (IC50) of the compounds of the present invention against the bromodomain protein BRD4 BD1 was determined.
as §1, §2, §3, §4, §5

`CCNC(=O)c1cc2c(-c3cc(CO)c4ccccc4c3C3CC3)cn(C)c(=O)c2[nH]1` [Compound A32, 4-(1-cyclopropyl-4-(hydroxymethyl)naphthalen-2-yl)-N-ethyl-6-methyl-7-oxo-6,7-dihydro-1H-pyrrolo[2,3-c]pyridin-2-carboxamide]: the IC50 in test [1] was ≤ 0.01 µM; in test [2], 0.01 to 0.1 µM.

Take `CCNC(=O)c1cc2c(-c3cn(C)nc3C(C)c3ccccc3)cn(C)c(=O)c2[nH]1` (centres unmarked) [Compound A33, N-ethyl-6-methyl-4-(1-methyl-3-(1-phenylethyl)-1H-pyrazol-4-yl)-7-oxo-6,7-dihydro-1H-pyrrolo[2,3c]pyridin-2-carboxamide]: the IC50 was 0.01 to 0.1 µM in test [1] and 0.1 to 1 µM in test [2].

With `CCNC(=O)c1cc2c(-c3c(C4CC4)nn(C)c3C3CC3)cn(C)c(=O)c2[nH]1` [Compound A34, 4-(3,5-dicyclopropyl-1-methyl-1H-pyrazol-4-yl)-N-ethyl-6-methyl-7-oxo-6,7-dihydro-1H-pyrrolo[2,3-c]pyridin-2-carboxamide], the IC50 in test [1] is 0.01 to 0.1 µM; in test [2] it was 0.1 to 1 µM.

Turning to `CCNC(=O)c1cc2c(-c3c(C(=O)NCC)cnn3C(C)c3ccccc3)cn(C)c(=O)c2[nH]1` (centres unmarked) [Compound A35, N-ethyl-4-(4-(ethylcarbamoyl)-1-(1-phenylethyl)-1H-pyrazol-5-yl)-6-methyl-7-oxo-6,7-dihydro-1H-pyrrolo[2,3-c]pyridin-2-carboxamide], the IC50 in test [1] lay in the range of 0.01 to 0.1 µM; in test [2], 0.1 to 1 µM.

On to `CCNC(=O)c1cc2c(-c3nc(CO)cn3-c3ccc(C)cc3)cn(C)c(=O)c2[nH]1` [Compound A36, N-ethyl-4-(4-(hydroxymethyl)-1-(p-tolyl)-1H-imidazol-2-yl)-6-methyl-7-oxo-6,7-dihydro-1H-pyrrolo[2,3-c]pyridin-2-carboxamide], for which the half-inhibitory concentration (IC50) fell in the range of 0.01 to 0.1 µM in test [1] and 0.1 to 1 µM in test [2].

In the case of `CCNC(=O)c1cc2c(-c3cc(C(C)=O)c4cccnc4c3OC)cn(C)c(=O)c2[nH]1` [Compound A37, 4-(5-acetyl-8-methoxyquinolin-7-yl)-N-ethyl-6-methyl-7-oxo-6,7-dihydro-1H-pyrrolo[2,3-c]pyridin-2-carboxamide], the half-maximal inhibitory concentration (IC50) in test [1] is 0.01 to 0.1 µM; in test [2], 0.1 to 1 µM.

For `COc1ccc(C(c2ccccc2)c2cn(C)c(=O)c3[nH]c(C(=O)Nc4cnn(C)c4)cc23)cc1` (centres unmarked) [Compound A38, 4-((4-methoxyphenyl)(phenyl)methyl)-6-methyl-N-(1-methyl-1H-pyrazol-4-yl)-7-oxo-6,7-dihydro-1H-pyrrolo[2,3-c]pyridin-2-carboxamide], the values for the IC50 in test [1] and in test [2] were 0.01 to 0.1 µM and 0.1 to 1 µM, respectively.

Regarding `CCNC(=O)c1cc2c(C(O)c3ccc4c(ccn4C)c3)cn(C)c(=O)c2[nH]1` (centres unmarked) [Compound A39, N-ethyl-4-(hydroxy(1-methyl-1H-indol-5-yl)methyl)-6-methyl-7-oxo-6,7-dihydro-1H-pyrrolo[2,3-c]pyridin-2-carboxamide], the IC50 in test [1] was 0.01 to 0.1 µM; in test [2], 0.1 to 1 µM.

As to `CCNC(=O)c1cc2c(-c3cc(C(C)(C)O)c4cccnc4c3C)cn(C)c(=O)c2[nH]1` [Compound A40, N-ethyl-4-(5-(2-hydroxypropan-2-yl)-8-methylquinolin-7-yl)-6-methyl-7-oxo-6,7-dihydro-1H-pyrrolo[2,3-c]pyridin-2-carboxamide], the IC50 is ≤ 0.01 µM in test [1] and 0.01 to 0.1 µM in test [2].

Regarding `CC(c1ccccc1)c1cn(C)c(=O)c2cc(-c3cn(C)nc3[N+](=O)[O-])sc12` (centres unmarked) [Compound A41, 5-methyl-2-(1-methyl-3-nitro-1H-pyrazol-4-yl)-7-(1-phenylethyl)thieno[3,2-c]pyridin-4(5H)-one], the 50% inhibitory concentration (IC50) in test [1] and in test [2] was 0.1 to 1 µM each time.

With `CC(c1ccccc1)c1cn(C)c(=O)c2cc(-c3cn(C)nc3N)sc12` (centres unmarked) [Compound A42, 2-(3-amino-1-methyl-1H-pyrazol-4-yl)-5-methyl-7-(1-phenylethyl)thieno[3,2-c]pyridin-4(5H)-one], the IC50 in test [1] is 0.01 to 0.1 µM; in test [2] it was 0.1 to 1 µM.

As to `COC(c1ccccc1)c1cn(C)c(=O)c2[nH]c(-c3cnn(C)c3)cc12` (centres unmarked) [Compound A43, 4-(methoxy(phenyl)methyl)-6-methyl-2-(1-methyl-1H-pyrazol-4-yl)-1,6-dihydro-7H-pyrrolo[2,3-c]pyridin-7-one], the concentration for half-maximal inhibition (IC50) in test [1] was in the range of 0.01 to 0.1 µM; in test [2] it was 0.1 to 1 µM.

`Cn1cc(-c2cc3c(C(O)c4ccccc4)cn(C)c(=O)c3[nH]2)cn1` (centres unmarked) [Compound A44]: the values for the IC50 in test [1] and in test [2] were 0.01 to 0.1 µM and 0.1 to 1 µM, respectively.

For the compound `CC(c1ccccc1)c1cn(C)c(=O)c2[nH]c(-c3cncnc3)cc12` (centres unmarked) [Compound A45], the IC50 in test [1] was ≤ 0.01 µM; in test [2] it was 0.01 to 0.1 µM.

Consider `CC(c1ccccc1)c1cn(C)c(=O)c2[nH]c(-c3ccoc3)cc12` (centres unmarked) [Compound A46], for which the IC50 in test [1] is ≤ 0.01 µM; in test [2] it was 0.01 to 0.1 µM.

With `CC(c1ccccc1)c1cn(C)c(=O)c2[nH]c(-c3c[nH]cn3)cc12` (centres unmarked) [Compound A47], the IC50 in test [1] is ≤ 0.01 µM; in test [2], 0.01 to 0.1 µM.

`Cc1ccc(C2CCC(=O)N2c2cn(C)c(=O)c3[nH]c(-c4cnn(C)c4)cc23)cc1` (centres unmarked) [Compound A48, 6-methyl-2-(1-methyl-1H-pyrazol-4-yl)-4-(2-oxo-5-(p-tolyl)pyrrolidin-1-yl)-1,6-dihydro-7H-pyrrolo[2,3-c]pyridin-7-one]: the IC50 in test [1] lay in the range of 0.01 to 0.1 µM; in test [2], 0.1 to 1 µM.

Regarding `Cc1cc(C)cc(-n2c(-c3cn(C)c(=O)c4[nH]c(-c5cnn(C)c5)cc34)nc3ncccc32)c1` [Compound A49, 4-(1-(3,5-dimethylphenyl)-1H-imidazo[4,5-b]pyridin-2-yl)-6-methyl-2-(1-methyl-1H-pyrazol-4-yl)-1,6-di hydro-7H-pyrrolo[2,3-c]pyridin-7-one], the IC50 was ≤ 0.01 µM in test [1] and 0.01 to 0.1 µM in test [2].

With `Cc1ccc(-n2c(-c3cn(C)c(=O)c4[nH]c(-c5cnn(C)c5)cc34)nc3ncccc32)cc1` [Compound A50], the IC50 in test [1] and in test [2] was 0.01 to 0.1 µM in each case.

In the case of `Cc1cc(C)cc(-n2c(-c3cn(C)c(=O)c4[nH]c(C(=O)Nc5ccn(C)n5)cc34)nc3ncccc32)c1` [Compound A51], the IC50 in test [1] was ≤ 0.01 µM; in test [2] it was 0.01 to 0.1 µM.

As to `Cc1cc(F)cc(C)c1-n1c(-c2cn(C)c(=O)c3[nH]c(C(=O)Nc4ccn(C)n4)cc23)nc2ncccc21` [Compound A52], the IC50 is ≤ 0.01 µM in test [1] and 0.01 to 0.1 µM in test [2].

`Cn1ccc(NC(=O)c2cc3c(-c4nc5ncccc5n4-c4ccccc4)cn(C)c(=O)c3[nH]2)n1` [Compound A53]: the figures for the IC50 in test [1] and in test [2] were 0.01 to 0.1 µM and 0.1 to 1 µM, respectively.

Consider `Cc1ccc(C2CCC(=O)N2c2cn(C)c(=O)c3[nH]c(C(=O)Nc4cn[nH]c4)cc23)cc1` (centres unmarked) [Compound A54], for which the IC50 in test [1] lay in the range of 0.01 to 0.1 µM; in test [2], 0.1 to 1 µM.

Take `Cc1ccc(C2c3ccccc3C(=O)N2c2cn(C)c(=O)c3[nH]c(C(=O)Nc4cn[nH]c4)cc23)cc1` (centres unmarked) [Compound A55]: the values for the IC50 in test [1] and in test [2] were 0.01 to 0.1 µM and 0.1 to 1 µM, respectively.

Take `Cc1ccc(-c2cn(C)nc2-c2cn(C)c(=O)c3[nH]c(C(=O)Nc4cn[nH]c4)cc23)cc1` [Compound A56, 6-methyl-4-(1-methyl-4-(p-tolyl)-1H-pyrazol-3-yl)-7-oxo-N-(1H-pyrazol-4-yl)-6,7-dihydro-1H-pyrrolo[2,3-c]pyridin-2-carboxamide]: the IC50 in test [1] is 0.01 to 0.1 µM; in test [2] it was 0.1 to 1 µM.

For `CC(c1ccccc1)c1cn(C)c(=O)c2cc(-c3n[nH]cc3N)oc12` (centres unmarked) [Compound A58, 2-(4-amino-1H-pyrazol-3-yl)-5-methyl-7-(1-phenethyl)furo[3,2-c]pyridin-4(5H)-one], the IC50 was ≤ 0.01 µM in test [1] and 0.1 to 1 µM in test [2].

Turning to `CC(c1ccccc1)c1cn(C)c(=O)c2cc(-c3cnn(C4COC4)c3)oc12` (centres unmarked) [Compound A59, 5-methyl-2-(1-(oxetan-3-yl)-1H-pyrazol-4-yl)-7-(1-phenethyl)furo[3,2-c]pyridin-4(5H)-one], the figures for the IC50 in test [1] and in test [2] were 0.01 to 0.1 µM and 0.1 to 1 µM, respectively.

Regarding `CC(c1ccccc1)c1cn(C)c(=O)c2c(C(=O)O)c(-c3cnn(C)c3)oc12` (centres unmarked) [Compound A60, 5-methyl-2-(1-methyl-1H-pyrazol-4-yl)-4-oxo-7-(1-phenethyl)-4,5-dihydrofuro[3,2-c]pyridin-3-carboxylic acid], the IC50 fell in the range of 0.01 to 0.1 µM in test [1] and 0.1 to 1 µM in test [2].
